System: HMG-CoA reductase
Assay: intrinsic HMG-CoA reductase inhibition, in vitro protocol of J. Med. Chem., 28, p. 347-358 (1985)
Type: biochemical
Details: IC50 of test compound compared with compactin (mevastatin) determined simultaneously; compactin assigned a value of 100
Method: The intrinsic HMG-CoA reductase inhibition activity of the claimed compounds is measured in the in vitro protocol published in J. Med. Chem., 28, p. 347-358 (1985).
For estimation of relative inhibitory potencies, compactin (i.e., mevastatin) was assigned a value of 100 and the IC50 value of the test compound was compared with that of compactin determined simultaneously in the published in vitro protocol.

relative potency: 186
Structure (SMILES): CCC(C)(C)C(=O)O[C@H]1C[C@@H](C)C[C@]23C[C@H]2C(=O)[C@H](C)[C@H](CC[C@@H]2C[C@@H](O)CC(=O)O2)[C@@H]13 [Example 1, 6(R)-[2-[2(R),6(S)-dimethyl-8(S)-(2,2-dimethylbutyryloxy)-α-4,4a-methyleno-1,2,3,4,4a,5,6,7,8,8a(R)-decahydro-3-oxo-naphthyl-1(S)]ethyl]-4(R)-hydroxy-3,4,5,6-tetrahydro-2H-pyran-2-one]
